These compounds were tested against Acetylcholinesterase (Electrophorus electricus, UniProt O42275).
Chain of Acetylcholinesterase (Electrophorus electricus, UniProt O42275) (O42275 whole entry): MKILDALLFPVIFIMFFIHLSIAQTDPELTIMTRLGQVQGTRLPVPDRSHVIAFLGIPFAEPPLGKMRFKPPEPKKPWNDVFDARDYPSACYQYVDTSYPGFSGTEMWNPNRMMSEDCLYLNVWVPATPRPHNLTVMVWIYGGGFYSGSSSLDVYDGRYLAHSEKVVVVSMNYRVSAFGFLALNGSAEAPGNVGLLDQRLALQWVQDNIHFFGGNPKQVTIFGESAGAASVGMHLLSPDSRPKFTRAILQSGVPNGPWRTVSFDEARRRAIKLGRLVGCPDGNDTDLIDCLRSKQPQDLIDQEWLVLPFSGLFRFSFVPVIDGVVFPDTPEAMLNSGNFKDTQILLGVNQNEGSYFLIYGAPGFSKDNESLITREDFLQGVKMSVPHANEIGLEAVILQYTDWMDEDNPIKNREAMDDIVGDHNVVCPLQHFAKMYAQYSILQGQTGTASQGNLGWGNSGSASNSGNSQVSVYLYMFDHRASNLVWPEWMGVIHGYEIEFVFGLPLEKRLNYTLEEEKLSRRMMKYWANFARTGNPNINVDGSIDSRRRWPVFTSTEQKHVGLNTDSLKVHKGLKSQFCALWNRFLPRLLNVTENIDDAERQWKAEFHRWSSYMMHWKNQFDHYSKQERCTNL
Description: (§1) Inhibitory activity against Acetylcholinesterase
For `CCC(=O)Oc1ccc(C)c([N+](C)(C)C)c1`, the IC50 was 69.1 µM.
Work on `CC(=O)Oc1cccc([N+](C)(C)C)c1` yielded an IC50 of 3.01 µM.
Compound `CCC(=O)Oc1cc([N+](C)(C)C)ccc1C` has an IC50 of 3.77 µM.
Work on `COc1cccc([N+](C)(C)C)c1C` yielded an IC50 of 239 µM.
`COc1ccc(C)c([N+](C)(C)C)c1` showed an IC50 of 345 µM.
`CCC(=O)Oc1cccc([N+](C)(C)C)c1` was tested, and the IC50 was 5.97 µM.
For `C[N+](C)(C)c1cccc(O)c1`, the IC50 was 0.973 µM.
`Cc1ccc(O)cc1[N+](C)(C)C` was tested, and the IC50 was 2.83 µM.
Compound `CC(=O)Oc1cc([N+](C)(C)C)ccc1C` has an IC50 of 0.659 µM.
With `COc1cccc([N+](C)(C)C)c1` the IC50 was 597 µM.
For `CC(=O)Oc1cccc([N+](C)(C)C)c1C`, the IC50 was 40.8 µM.
With `COc1cc([N+](C)(C)C)ccc1C` the IC50 was 122 µM.
`CCC(=O)Oc1cccc([N+](C)(C)C)c1C` was tested, and the IC50 was 754 µM.
Work on `Cc1ccc([N+](C)(C)C)cc1O` yielded an IC50 of 3.11 µM.
`CC(=O)Oc1ccc(C)c([N+](C)(C)C)c1` showed an IC50 of 5.34 µM.
Compound `Cc1c(O)cccc1[N+](C)(C)C` has an IC50 of 141 µM.

What follows are compounds tested against T1, Acetylcholinesterase (Torpedo californica, UniProt P04058).
T1 sequence (P04058 whole entry): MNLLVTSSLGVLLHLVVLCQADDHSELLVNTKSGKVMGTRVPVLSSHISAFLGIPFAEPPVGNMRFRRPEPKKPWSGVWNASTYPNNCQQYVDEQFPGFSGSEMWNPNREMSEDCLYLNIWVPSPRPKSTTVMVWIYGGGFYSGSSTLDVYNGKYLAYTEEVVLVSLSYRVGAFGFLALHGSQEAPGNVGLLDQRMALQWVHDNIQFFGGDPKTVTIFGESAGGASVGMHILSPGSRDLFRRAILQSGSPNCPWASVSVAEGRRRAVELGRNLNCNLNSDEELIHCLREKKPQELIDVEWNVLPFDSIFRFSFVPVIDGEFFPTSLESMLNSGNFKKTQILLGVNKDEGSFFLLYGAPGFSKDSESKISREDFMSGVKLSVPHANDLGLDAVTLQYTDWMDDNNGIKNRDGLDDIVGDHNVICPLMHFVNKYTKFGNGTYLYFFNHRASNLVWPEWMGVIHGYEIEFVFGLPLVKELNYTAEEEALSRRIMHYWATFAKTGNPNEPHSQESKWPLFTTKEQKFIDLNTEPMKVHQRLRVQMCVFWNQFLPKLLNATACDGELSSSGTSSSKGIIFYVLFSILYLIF
Parameters: species or system Tetronarce californica
Description: as §1
`CC(C)(C)[C@@]1(O)C[N+](C)(C)CCO1` showed an IC50 of 3710 µM.
Compound `CCSCC[N+](C)(C)C` has an IC50 of 1510 µM.
With `C[N+]1(C)CCO[C@@](O)(c2ccc(C#N)cc2)C1` the IC50 was 11600 µM.
Compound `CCCCCC[N+](C)(C)C` has an IC50 of 816 µM.
Work on `C[N+]1(C)CCO[C@@](O)(C(F)(F)F)C1` yielded an IC50 of 3830 µM.
With `C=CC[N+](C)(C)C` the IC50 was 2920 µM.
For `C[N+](C)(C)CCCCBr`, the IC50 was 597 µM.
Work on `C[N+](C)(C)CCCCCBr` yielded an IC50 of 534 µM.
Compound `CC(=O)Nc1cccc([N+](C)(C)C)c1` has an IC50 of 1000 µM.
`C[C@@]1(O)C[N+](C)(C)CCO1` was tested, and the IC50 was 1730 µM.
For `C[N+](C)(C)CCS`, the IC50 was 440 µM.
`CC(=O)CCC[N+](C)(C)C` showed an IC50 of 84.8 µM.
`CCCC(=O)SCC[N+](C)(C)C` showed an IC50 of 126 µM.
`C[N+]1(C)CCO[C@@](O)(c2ccc(N)cc2)C1` showed an IC50 of 691 µM.
For `C[N+](C)(C)CCCl` [CHLORMEQUAT CHLORIDE], the IC50 was 2390 µM.
With `CCCC(=O)OCC[N+](C)(C)C` the IC50 was 229 µM.
For `C[N+]1(C)CCO[C@@](O)(c2ccc(Cl)cc2)C1`, the IC50 was 8130 µM.
Work on `C[N+](C)(C)c1cccc(N)c1` yielded an IC50 of 192 µM.
`C[N+](C)(C)CCCCI` showed an IC50 of 471 µM.
Compound `C=CCCCN(C)C` has an IC50 of 1130 µM.
`C[N+]1(C)CCO[C@H](O)C1` gave an IC50 of 1760 µM.
`C=CCC[N+](C)(C)C` gave an IC50 of 848 µM.
`C[N+](C)(C)CCCBr` gave an IC50 of 87.9 µM.
Compound `C[N+]1(C)CCO[C@@](O)(c2ccc([N+](=O)[O-])cc2)C1` has an IC50 of 5120 µM.
Work on `CC(=O)Nc1ccc([C@@]2(O)C[N+](C)(C)CCO2)cc1` yielded an IC50 of 2070 µM.
Work on `CCOCC[N+](C)(C)C` yielded an IC50 of 1160 µM.

Target: T1, Acetylcholinesterase
Remark: another data set of the same source
Description: as §1
`C[N+](C)(C)c1cccc([N+](=O)[O-])c1` was tested, and the IC50 was 628 µM.

The compounds below were run against Acetylcholinesterase (Homo sapiens, UniProt P22303).
Chain of Acetylcholinesterase (Homo sapiens, UniProt P22303) (P22303 whole entry): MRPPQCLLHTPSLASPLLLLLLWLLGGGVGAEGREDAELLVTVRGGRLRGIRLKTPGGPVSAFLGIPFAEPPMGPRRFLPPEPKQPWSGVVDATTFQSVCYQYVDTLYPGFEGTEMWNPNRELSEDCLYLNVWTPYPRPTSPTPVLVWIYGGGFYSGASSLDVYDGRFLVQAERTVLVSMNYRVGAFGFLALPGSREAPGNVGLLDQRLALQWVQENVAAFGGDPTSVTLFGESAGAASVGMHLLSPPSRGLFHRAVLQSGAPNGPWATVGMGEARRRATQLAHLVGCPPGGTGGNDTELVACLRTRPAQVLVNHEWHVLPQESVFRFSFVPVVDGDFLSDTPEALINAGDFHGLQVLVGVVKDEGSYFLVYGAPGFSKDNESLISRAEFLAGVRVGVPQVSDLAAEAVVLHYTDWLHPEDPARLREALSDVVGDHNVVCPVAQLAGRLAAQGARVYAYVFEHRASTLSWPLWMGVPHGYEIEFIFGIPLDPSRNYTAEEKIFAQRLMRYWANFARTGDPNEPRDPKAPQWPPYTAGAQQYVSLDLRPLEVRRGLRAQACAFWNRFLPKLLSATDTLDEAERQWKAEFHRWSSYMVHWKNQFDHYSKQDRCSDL
Description: as §1
Compound `CN1CC[C@@]2(C)c3cc(OC(=O)NCc4ccccc4)ccc3N(C)C12` (some centres not stated) has an IC50 of 0.46 µM.
Work on `CN(C)C(=O)Oc1ccc2c(c1)[C@]1(C)CCN(C)C1N2C` (some centres not stated) yielded an IC50 of 0.97 µM.
Work on `CN1CC[C@@]2(C)c3cc(OC(=O)Nc4ccc(Cl)cc4)ccc3N(C)C12` (some centres not stated) yielded an IC50 of 1.8 µM.
`CCN(CC)C(=O)Oc1ccc2c(c1)[C@]1(C)CCN(C)C1N2C` (some centres not stated) gave an IC50 of 40 µM.
Compound `CCCCNC(=O)Oc1ccc2c(c1)[C@]1(C)CCN(C)C1N2C` (some centres not stated) has an IC50 of 0.152 µM.
`CN1CC[C@@]2(C)c3cc(OC(=O)Nc4ccccc4)ccc3N(C)C12` (some centres not stated) was tested, and the IC50 was 0.35 µM.
`CN(C(=O)NCc1ccccc1)C(=O)Oc1ccc2c(c1)[C@]1(C)CCN(C)C1N2C` (some centres not stated) was tested, and the IC50 was 6.3 µM.
For `CC(C)NC(=O)Oc1ccc2c(c1)[C@]1(C)CCN(C)C1N2C` (some centres not stated), the IC50 was 35 µM.
Work on `CNC(=O)Oc1ccc2c(c1)[C@]1(C)CC[N+](C)(C)C1N2C` (some centres not stated) yielded an IC50 of 0.034 µM.

Source: ChEMBL document CHEMBL1129057, “Structure-based alignment and comparative molecular field analysis of acetylcholinesterase inhibitors” (J Med Chem, 1996)
